Test results reported in patent US20230398130A1, “METHODS AND COMPOSITIONS FOR DIFFERENTIATING STEM CELLS” (Massachusetts Institute of Technology, priority 2020, published 2023).

Legend:
[1] = tested on: ISC-enriched organoids; assay: Primary screen, 384-well 2.5-D organoid differentiation (ENR+CD, 6 days, Target Selective Inhibitor Library, vs whole-plate median): ATP (CellTiter-Glo 3D, CTG); conditions: for Dose.FC.CTG (log 2 fold change, ATP) / Dose.FC.CTG (log 2 fold change): vs plate median
[2] = tested on: ISC-enriched organoids; assay: Primary screen, 384-well 2.5-D organoid differentiation (ENR+CD, 6 days): basal lysozyme secretion (LYZ.NS); format: cell-based, murine; conditions: for Dose.FC.LYZ.NS (log 2 fold change, basal lysozyme secretion) / Dose.FC.LYZ.NS (log 2 fold change): vs plate median
Text: (§1) High-throughput screening.

[3] = tested on: ISC-enriched organoids; assay: Primary screen, 384-well 2.5-D organoid differentiation (ENR+CD, 6 days): carbachol-induced lysozyme secretion (LYZ.S); format: cell-based, murine; conditions: vs plate median; for Dose.FC.LYZ.S (log 2 fold change): primary screen
Text: as §1

Row | Structure (SMILES) | Z.CTG (standard z score) ([1]; dose 0.08 uM) | Dose.FC.CTG (log 2 fold change, ATP) ([1]; dose 0.08 uM) | Z.CTG (standard z score) ([1]; dose 0.40 uM) | Dose.FC.CTG (log 2 fold change, ATP) ([1]; dose 0.40 uM) | Z.CTG (standard z score) ([1]; dose 2.00 uM) | Dose.FC.CTG (log 2 fold change, ATP) ([1]; dose 2.00 uM) | Z.CTG (standard z score) ([1]; dose 10.00 uM) | Dose.FC.CTG (log 2 fold change, ATP) ([1]; dose 10.00 uM) | Z.LYZ.NS (standard z score) ([2]; dose 0.08 uM) | Dose.FC.LYZ.NS (log 2 fold change, basal lysozyme secretion) ([2]; dose 0.08 uM) | Z.LYZ.NS (standard z score) ([2]; dose 0.40 uM) | Dose.FC.LYZ.NS (log 2 fold change, basal lysozyme secretion) ([2]; dose 0.40 uM) | Z.LYZ.NS (standard z score) ([2]; dose 2.00 uM) | Dose.FC.LYZ.NS (log 2 fold change, basal lysozyme secretion) ([2]; dose 2.00 uM) | Z.LYZ.NS (standard z score) ([2]; dose 10.00 uM) | Dose.FC.LYZ.NS (log 2 fold change, basal lysozyme secretion) ([2]; dose 10.00 uM) | Dose.FC.LYZ.S (log 2 fold change, carbachol-induced lysozyme secretion) ([3]; dose 0.08 uM) | Dose.FC.LYZ.S (log 2 fold change, carbachol-induced lysozyme secretion) ([3]; dose 0.40 uM) | Dose.FC.LYZ.S (log 2 fold change, carbachol-induced lysozyme secretion) ([3]; dose 2.00 uM) | Dose.FC.LYZ.S (log 2 fold change, carbachol-induced lysozyme secretion) ([3]; dose 10.00 uM) | also measured
1 | Nc1cccc(-c2cc3c(Oc4cccc(O)c4)ncnc3[nH]2)c1 [TWS119] | 0.784 | 0.328 | 0.796 | 0.333 | 0.169 | 0.071 | −2.866 | −1.200 | 0.820 | 0.094 | 0.327 | 0.038 | 0.304 | 0.035 | −2.027 | −0.233 | 0.207 | 0.142 | 0.044 | −0.283 | 
2 | COc1cc2c(N3CCN(C(=O)Nc4ccc(OC(C)C)cc4)CC3)ncnc2cc1OCCCN1CCCCC1 [Tandutinib (MLN518)] |  |  |  |  |  |  |  |  |  |  |  |  |  |  |  |  |  |  |  |  | Z.CTG (standard z score) ([1]; Dose 0.08 uM, primary screen): 1.397; Dose.FC.CTG (log 2 fold change) ([1]; Dose 0.08 uM, primary screen): 0.585; Z.CTG (standard z score) ([1]; Dose 0.40 uM, primary screen): 0.845; Dose.FC.CTG (log 2 fold change) ([1]; Dose 0.40 uM, primary screen): 0.354; Z.CTG (standard z score) ([1]; Dose 2.00 uM, primary screen): 0.856; Dose.FC.CTG (log 2 fold change) ([1]; Dose 2.00 uM, primary screen): 0.358; Z.CTG (standard z score) ([1]; Dose 10.00 uM, primary screen): 1.401; Dose.FC.CTG (log 2 fold change) ([1]; Dose 10.00 uM, primary screen): 0.586; Z.LYZ.NS (standard z score) ([2]; Dose 0.08 uM, primary screen): 0.828; Dose.FC.LYZ.NS (log 2 fold change) ([2]; Dose 0.08 uM, primary screen): 0.095; Z.LYZ.NS (standard z score) ([2]; Dose 0.40 uM, primary screen): 1.066; Dose.FC.LYZ.NS (log 2 fold change) ([2]; Dose 0.40 uM, primary screen): 0.122; Z.LYZ.NS (standard z score) ([2]; Dose 2.00 uM, primary screen): 1.012; Dose.FC.LYZ.NS (log 2 fold change) ([2]; Dose 2.00 uM, primary screen): 0.116; Z.LYZ.NS (standard z score) ([2]; Dose 10.00 uM, primary screen): 0.407; Dose.FC.LYZ.NS (log 2 fold change) ([2]; Dose 10.00 uM, primary screen): 0.047; Dose.FC.LYZ.S (log 2 fold change) ([3]; Dose 0.08 uM): 0.145; Dose.FC.LYZ.S (log 2 fold change) ([3]; Dose 0.40 uM): 0.178; Dose.FC.LYZ.S (log 2 fold change) ([3]; Dose 2.00 uM): 0.093; Dose.FC.LYZ.S (log 2 fold change) ([3]; Dose 10.00 uM): 0.100
3 | CO[C@H]1C[C@@H]2CC[C@@H](C)[C@@](O)(O2)C(=O)C(=O)N2CCCC[C@H]2C(=O)O[C@H]([C@H](C)C[C@@H]2CC[C@@H](OC(=O)C(C)(CO)CO)[C@H](OC)C2)CC(=O)[C@H](C)/C=C(\C)[C@@H](O)[C@@H](OC)C(=O)[C@H](C)C[C@H](C)/C=C/C=C/C=C/1C [Temsirolimus (CCI-779, NSC 683864)] |  |  |  |  |  |  | 0.478 | 0.200 |  |  |  |  |  |  | 1.035 | 0.119 |  |  |  | 0.153 | Z.CTG (standard z score) ([1]; Dose 0.08 uM, primary screen): 1.228; Dose.FC.CTG (log 2 fold change) ([1]; Dose 0.08 uM, primary screen): 0.514; Z.CTG (standard z score) ([1]; Dose 0.40 uM, primary screen): 1.393; Dose.FC.CTG (log 2 fold change) ([1]; Dose 0.40 uM, primary screen): 0.583; Z.CTG (standard z score) ([1]; Dose 2.00 uM, primary screen): 1.382; Dose.FC.CTG (log 2 fold change) ([1]; Dose 2.00 uM, primary screen): 0.578; Z.LYZ.NS (standard z score) ([2]; Dose 0.08 uM, primary screen): 0.790; Dose.FC.LYZ.NS (log 2 fold change) ([2]; Dose 0.08 uM, primary screen): 0.091; Z.LYZ.NS (standard z score) ([2]; Dose 0.40 uM, primary screen): 0.763; Dose.FC.LYZ.NS (log 2 fold change) ([2]; Dose 0.40 uM, primary screen): 0.088; Z.LYZ.NS (standard z score) ([2]; Dose 2.00 uM, primary screen): 1.494; Dose.FC.LYZ.NS (log 2 fold change) ([2]; Dose 2.00 uM, primary screen): 0.172; Dose.FC.LYZ.S (log 2 fold change) ([3]; Dose 0.08 uM): 0.082; Dose.FC.LYZ.S (log 2 fold change) ([3]; Dose 0.40 uM): 0.152; Dose.FC.LYZ.S (log 2 fold change) ([3]; Dose 2.00 uM): 0.132
4 | C[C@H](Cn1cnc2c(N)ncnc21)OCP(=O)(O)O [Tenofovir] | 0.045 | 0.019 | −0.200 | −0.084 | −0.308 | −0.129 | −0.804 | −0.337 | 0.673 | 0.077 | −0.662 | −0.076 | −1.153 | −0.132 | −1.899 | −0.218 | 0.045 | −0.080 | −0.171 | −0.271 | 
5 | CN(C)CCCCC(=O)Nc1ccc(NC(=S)NC(=O)c2ccc(C(C)(C)C)cc2)cc1 [Tenovin-6] | 0.165 | 0.069 | −1.209 | −0.506 | −2.654 | −1.111 | −3.414 | −1.429 | 1.050 | 0.121 | −0.463 | −0.053 | −1.686 | −0.194 | −1.671 | −0.192 | 0.028 | −0.109 | −0.328 | −0.344 | 
6 | O=C(NCc1ccccc1)c1csc(Nc2ccncn2)n1 [Thiazovivin] | 0.337 | 0.141 | 0.271 | 0.113 | 0.746 | 0.312 | 0.451 | 0.189 | 0.780 | 0.090 | 0.611 | 0.070 | 0.205 | 0.024 | −0.605 | −0.069 | 0.142 | 0.060 | 0.064 | 0.037 | 
7 | COc1ccc2cc(-c3nc(-c4ccc([S+](C)[O-])cc4)[nH]c3-c3ccncc3)ccc2c1 (centres unmarked) [Tie2 kinase inhibitor] | 0.012 | 0.005 | 0.177 | 0.074 | −0.750 | −0.314 | −1.311 | −0.549 | 0.080 | 0.009 | 0.019 | 0.002 | 1.577 | 0.181 | −0.274 | −0.031 | 0.018 | −0.021 | 0.024 | −0.097 | 
